# Laboratory results as given in ChEMBL document CHEMBL1201862, “PubChem BioAssay data set” (2004).
# Calls of active or inactive are those of the source.
# Tests used:
# [1] = biological target: T1, E3 ubiquitin-protein ligase XIAP (Homo sapiens, UniProt P98170); assay: Counter Screen using XIAP-Bir3 for Chemical Antagonists of Bir1/2 domains of IAP-family anti-apoptotic proteins. [Related pubchem assays (depositor defined):AID1018, AID1449, AID1514, AID1638, AID1749, AID1750, AID488957, AID488963]
# [2] = biological target: T1, E3 ubiquitin-protein ligase XIAP; assay: small molecules displacing peptide from XIAP – biochemical, IAP family, fluorescence polarization (AID 1018); format: functional
# [3] = biological target: Peroxisome proliferator-activated receptor gamma/Nuclear receptor coactivator 1 (Homo sapiens, UniProt P37231); assay: TR-FRET dose response biochemical High Throughput Screening assay for agonists of the steroid receptor coactivator 1 (SRC-1) recruitment by the peroxisome proliferator-activated receptor gamma (PPAR gamma): non-selective agonists. [Related pubchem assays (depositor defined):AID1300, AID1808, AID504735, AID631]; format: protein assay
# [4] = biological target: Peroxisome proliferator-activated receptor gamma/Nuclear receptor coactivator 3 (Homo sapiens, UniProt P37231); assay: TR-FRET dose response biochemical High Throughput Screening assay for agonists of the steroid receptor coactivator 3 (SRC-3) recruitment by the peroxisome proliferator-activated receptor gamma (PPAR gamma): non-selective agonists. [Related pubchem assays: 1301 (Confirmation screen.), 1048 (Primary screen.)]; format: functional
# [5] = biological target: Peroxisome proliferator-activated receptor gamma/Nuclear receptor coactivator 2 (Homo sapiens, UniProt P37231); assay: TR-FRET dose response biochemical High Throughput Screening assay for agonists of the steroid receptor coactivator 2 (SRC-2) recruitment by the peroxisome proliferator-activated receptor gamma (PPAR gamma): non-selective agonists. [Related pubchem assays: 1297, 1032 ]; format: functional
# [6] = biological target: Mitogen-activated protein kinase 10 (Homo sapiens, UniProt P53779); assay: Dose response biochemical screening assay for inhibitors of c-Jun N-Terminal Kinase 3 (JNK3). [Related pubchem assays: 746 ]
# Cytochrome P450 2C19 = Cytochrome P450 2C19 (Homo sapiens, UniProt P33261); assay: Cytochrome panel assay with activity outcomes. Panel member name: p450-cyp2c19 Compounds with AC50 equal or less than 10 uM are considered active; format: functional; conditions: read-out: AC50
# P388/ADR = assay: cells; format: functional; conditions: Mus musculus
# SN12K1 = assay: cells; format: functional; conditions: Homo sapiens
# P388 = assay: cells; format: functional; conditions: Mus musculus
# Aminopeptidase N = biological target: T2, Aminopeptidase N (Plasmodium falciparum FcB1/Columbia, UniProt O96935); assay: malaria alanyl aminopeptidase activity blockers – biochemical, fluorogenic H-Leu-NHMec substrate, 1536-well (AID 1445); set-up: species or system Plasmodium falciparum 3D7, 3D7
# T2 sequence (O96935 whole entry): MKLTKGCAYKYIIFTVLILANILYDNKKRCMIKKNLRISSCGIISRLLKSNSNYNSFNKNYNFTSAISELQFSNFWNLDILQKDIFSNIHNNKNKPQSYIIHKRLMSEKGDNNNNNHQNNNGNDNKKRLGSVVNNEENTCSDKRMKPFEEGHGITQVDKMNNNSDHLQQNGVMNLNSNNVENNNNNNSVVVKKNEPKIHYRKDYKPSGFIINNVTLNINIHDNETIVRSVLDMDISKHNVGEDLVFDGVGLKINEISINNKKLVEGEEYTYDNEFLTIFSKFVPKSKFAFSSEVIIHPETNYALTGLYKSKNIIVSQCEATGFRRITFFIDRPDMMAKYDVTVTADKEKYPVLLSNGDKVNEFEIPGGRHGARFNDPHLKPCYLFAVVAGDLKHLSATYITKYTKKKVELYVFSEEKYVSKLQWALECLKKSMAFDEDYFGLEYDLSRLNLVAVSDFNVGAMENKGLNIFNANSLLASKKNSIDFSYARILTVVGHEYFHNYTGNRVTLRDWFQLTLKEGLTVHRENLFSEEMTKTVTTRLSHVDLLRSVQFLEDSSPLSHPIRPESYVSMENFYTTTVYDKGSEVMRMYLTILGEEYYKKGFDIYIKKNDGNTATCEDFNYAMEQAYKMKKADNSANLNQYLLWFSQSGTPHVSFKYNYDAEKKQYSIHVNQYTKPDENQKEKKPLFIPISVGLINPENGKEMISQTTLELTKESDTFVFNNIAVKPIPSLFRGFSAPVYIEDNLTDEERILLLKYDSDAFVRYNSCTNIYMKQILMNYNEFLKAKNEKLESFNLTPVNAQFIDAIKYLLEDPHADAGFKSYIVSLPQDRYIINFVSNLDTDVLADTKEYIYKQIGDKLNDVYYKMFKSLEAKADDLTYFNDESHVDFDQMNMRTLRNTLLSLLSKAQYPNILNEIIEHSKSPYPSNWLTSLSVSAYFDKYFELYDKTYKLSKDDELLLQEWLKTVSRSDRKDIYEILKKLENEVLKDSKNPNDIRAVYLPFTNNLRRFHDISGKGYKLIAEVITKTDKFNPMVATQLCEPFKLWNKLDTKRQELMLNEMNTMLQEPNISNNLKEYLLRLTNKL
# Genome polyprotein = Genome polyprotein (dengue virus type 2, UniProt P29990); assay: flavivirus cap methylation enzyme inhibition – biochemical, confirmation dose response, primary screen (AID 588689); format: functional
# [7] = biological target: T3, Rac GTPase-activating protein 1 (Homo sapiens, UniProt Q9H0H5); assay: blockers of MgcRacGAP-driven Rac1 GTP hydrolysis – biochemical, ADP Hunter fluorescence, primary and confirmatory, confirmation (AID 624330); format: functional
# T3 sequence (Q9H0H5 whole entry): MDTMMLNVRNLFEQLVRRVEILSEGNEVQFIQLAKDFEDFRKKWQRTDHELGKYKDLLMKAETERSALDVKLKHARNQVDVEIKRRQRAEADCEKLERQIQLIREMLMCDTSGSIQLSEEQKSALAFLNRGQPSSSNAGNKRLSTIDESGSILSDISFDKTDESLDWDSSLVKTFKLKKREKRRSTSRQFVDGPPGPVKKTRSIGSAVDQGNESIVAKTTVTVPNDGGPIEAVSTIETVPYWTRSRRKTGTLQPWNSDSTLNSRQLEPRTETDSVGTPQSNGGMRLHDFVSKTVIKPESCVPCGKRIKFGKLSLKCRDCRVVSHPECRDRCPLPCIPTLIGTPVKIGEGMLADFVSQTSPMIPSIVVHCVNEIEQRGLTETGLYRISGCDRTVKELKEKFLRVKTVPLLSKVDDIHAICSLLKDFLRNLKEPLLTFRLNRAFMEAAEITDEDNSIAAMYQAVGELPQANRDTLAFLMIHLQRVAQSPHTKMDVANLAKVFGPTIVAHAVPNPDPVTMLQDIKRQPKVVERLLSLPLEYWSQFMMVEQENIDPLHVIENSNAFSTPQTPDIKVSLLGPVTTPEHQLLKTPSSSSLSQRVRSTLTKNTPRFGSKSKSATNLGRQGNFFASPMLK
# [8] = viability of uninfected HEp-2 cells – cell-based, HTS, cytotoxicity control for RSV inhibitor project, dose response (AID 2410); format: functional; conditions: human respiratory syncytial virus
# [9] = activation of miR-122 Renilla sensor silencing – cell-based, Huh7 psiCHECK-miR122, Renilla luciferase, cherry-picked, dose response (AID 651956); format: functional;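 also: huh7 hepatoma cells stably carrying a psiCHECK-2 miR-122 sensor plasmid; renilla luciferase signal reporting endogenous miR-122 activity after 48 h compound exposure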
# [10] = biological target: T4, Sentrin-specific protease 8 (Homo sapiens, UniProt Q96LD8); format: functional;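 also: kinetic enzyme assay of SENP8 cleaving a Nedd8 protein substrate, dose-response confirmation of screening hits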
# T4 sequence (Q96LD8 whole entry): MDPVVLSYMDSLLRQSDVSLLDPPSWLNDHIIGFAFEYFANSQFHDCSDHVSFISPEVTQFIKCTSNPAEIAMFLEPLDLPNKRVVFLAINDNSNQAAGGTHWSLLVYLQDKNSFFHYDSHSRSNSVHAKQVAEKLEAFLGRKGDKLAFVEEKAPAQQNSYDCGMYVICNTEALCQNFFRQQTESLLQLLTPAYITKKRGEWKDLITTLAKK
# [11] = viability of PTEN-deleted HCT116 cells – cell-based, HCT116 PTEN knockout, dose response (AID 1047); format: functional;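 also: HCT116 colon tumor cells with PTEN knocked out; cells exposed to compound for 60 hours before readout; potency for loss of cell viability measured by luminescence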
# [12] = viability of HCT116 lacking mutant beta-catenin – cell-based, human colon tumor, dose response (AID 1045); format: functional;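 also: HCT116 colon tumor cells with beta catenin knocked out; cells exposed to compound for 60 hours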
# [13] = THP-1 cell cytotoxicity, dose response, cytotoxicity control for non-replicating M. tuberculosis project (AID 489025); format: functional
# cells = format: functional
# [14] = biological target: Heat shock protein HSP 90-alpha (Homo sapiens, UniProt P07900); format: functional, organism-based
# Peroxisome proliferator-activated receptor gamma/Nuclear receptor coactivator 2, sequence (P37231 whole entry): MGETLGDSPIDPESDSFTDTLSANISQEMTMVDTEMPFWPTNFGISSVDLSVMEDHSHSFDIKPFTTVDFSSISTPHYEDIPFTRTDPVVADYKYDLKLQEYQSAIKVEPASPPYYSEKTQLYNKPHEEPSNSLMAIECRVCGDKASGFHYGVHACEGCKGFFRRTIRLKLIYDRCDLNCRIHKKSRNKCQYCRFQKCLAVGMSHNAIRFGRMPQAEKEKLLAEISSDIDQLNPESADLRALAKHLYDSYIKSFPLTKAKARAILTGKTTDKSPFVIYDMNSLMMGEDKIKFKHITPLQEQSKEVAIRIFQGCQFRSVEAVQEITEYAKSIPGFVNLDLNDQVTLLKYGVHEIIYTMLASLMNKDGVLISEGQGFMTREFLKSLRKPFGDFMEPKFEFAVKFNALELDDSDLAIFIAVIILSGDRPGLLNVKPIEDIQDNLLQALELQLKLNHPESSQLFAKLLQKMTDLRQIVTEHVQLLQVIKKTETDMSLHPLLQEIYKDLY
# Peroxisome proliferator-activated receptor gamma/Nuclear receptor coactivator 2, sequence (Q15596 whole entry, further chain): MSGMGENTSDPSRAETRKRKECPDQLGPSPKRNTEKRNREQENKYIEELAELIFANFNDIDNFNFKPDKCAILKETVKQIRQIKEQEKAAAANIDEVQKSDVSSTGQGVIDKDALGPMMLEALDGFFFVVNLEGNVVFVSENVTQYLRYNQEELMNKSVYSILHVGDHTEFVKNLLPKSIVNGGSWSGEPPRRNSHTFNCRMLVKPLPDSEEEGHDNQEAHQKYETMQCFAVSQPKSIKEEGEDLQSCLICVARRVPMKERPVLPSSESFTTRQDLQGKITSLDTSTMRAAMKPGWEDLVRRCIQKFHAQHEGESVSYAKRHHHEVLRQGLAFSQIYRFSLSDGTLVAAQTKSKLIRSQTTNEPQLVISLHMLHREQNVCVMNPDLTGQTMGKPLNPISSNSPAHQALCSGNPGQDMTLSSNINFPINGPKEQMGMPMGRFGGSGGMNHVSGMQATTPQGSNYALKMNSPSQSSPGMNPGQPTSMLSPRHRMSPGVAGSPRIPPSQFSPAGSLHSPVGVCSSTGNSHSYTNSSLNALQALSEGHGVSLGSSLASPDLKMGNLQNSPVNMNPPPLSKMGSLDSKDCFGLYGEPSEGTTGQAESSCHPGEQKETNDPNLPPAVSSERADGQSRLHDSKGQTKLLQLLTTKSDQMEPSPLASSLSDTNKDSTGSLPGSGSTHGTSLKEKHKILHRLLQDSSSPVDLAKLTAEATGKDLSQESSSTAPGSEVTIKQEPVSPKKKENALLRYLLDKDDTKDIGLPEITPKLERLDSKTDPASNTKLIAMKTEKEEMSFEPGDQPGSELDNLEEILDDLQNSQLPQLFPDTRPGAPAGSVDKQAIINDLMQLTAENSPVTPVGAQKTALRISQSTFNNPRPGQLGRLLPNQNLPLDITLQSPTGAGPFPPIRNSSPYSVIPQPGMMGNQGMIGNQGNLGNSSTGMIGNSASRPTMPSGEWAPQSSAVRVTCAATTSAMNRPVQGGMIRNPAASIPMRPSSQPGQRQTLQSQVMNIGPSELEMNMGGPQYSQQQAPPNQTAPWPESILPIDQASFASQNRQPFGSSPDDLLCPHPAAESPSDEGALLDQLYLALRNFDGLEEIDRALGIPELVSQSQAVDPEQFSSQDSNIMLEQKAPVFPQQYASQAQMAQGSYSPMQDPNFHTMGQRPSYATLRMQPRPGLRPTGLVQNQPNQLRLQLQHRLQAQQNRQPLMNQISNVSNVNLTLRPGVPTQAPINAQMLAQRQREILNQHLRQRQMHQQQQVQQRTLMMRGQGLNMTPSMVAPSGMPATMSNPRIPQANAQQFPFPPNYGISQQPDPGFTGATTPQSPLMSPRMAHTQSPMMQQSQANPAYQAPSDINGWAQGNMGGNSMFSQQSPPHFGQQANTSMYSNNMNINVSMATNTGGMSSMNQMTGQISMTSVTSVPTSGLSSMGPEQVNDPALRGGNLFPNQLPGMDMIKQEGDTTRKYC
# Peroxisome proliferator-activated receptor gamma/Nuclear receptor coactivator 1, sequence (P37231 whole entry): as the sequence (P37231 whole entry) above
# Peroxisome proliferator-activated receptor gamma/Nuclear receptor coactivator 1, sequence (Q15788 whole entry, further chain): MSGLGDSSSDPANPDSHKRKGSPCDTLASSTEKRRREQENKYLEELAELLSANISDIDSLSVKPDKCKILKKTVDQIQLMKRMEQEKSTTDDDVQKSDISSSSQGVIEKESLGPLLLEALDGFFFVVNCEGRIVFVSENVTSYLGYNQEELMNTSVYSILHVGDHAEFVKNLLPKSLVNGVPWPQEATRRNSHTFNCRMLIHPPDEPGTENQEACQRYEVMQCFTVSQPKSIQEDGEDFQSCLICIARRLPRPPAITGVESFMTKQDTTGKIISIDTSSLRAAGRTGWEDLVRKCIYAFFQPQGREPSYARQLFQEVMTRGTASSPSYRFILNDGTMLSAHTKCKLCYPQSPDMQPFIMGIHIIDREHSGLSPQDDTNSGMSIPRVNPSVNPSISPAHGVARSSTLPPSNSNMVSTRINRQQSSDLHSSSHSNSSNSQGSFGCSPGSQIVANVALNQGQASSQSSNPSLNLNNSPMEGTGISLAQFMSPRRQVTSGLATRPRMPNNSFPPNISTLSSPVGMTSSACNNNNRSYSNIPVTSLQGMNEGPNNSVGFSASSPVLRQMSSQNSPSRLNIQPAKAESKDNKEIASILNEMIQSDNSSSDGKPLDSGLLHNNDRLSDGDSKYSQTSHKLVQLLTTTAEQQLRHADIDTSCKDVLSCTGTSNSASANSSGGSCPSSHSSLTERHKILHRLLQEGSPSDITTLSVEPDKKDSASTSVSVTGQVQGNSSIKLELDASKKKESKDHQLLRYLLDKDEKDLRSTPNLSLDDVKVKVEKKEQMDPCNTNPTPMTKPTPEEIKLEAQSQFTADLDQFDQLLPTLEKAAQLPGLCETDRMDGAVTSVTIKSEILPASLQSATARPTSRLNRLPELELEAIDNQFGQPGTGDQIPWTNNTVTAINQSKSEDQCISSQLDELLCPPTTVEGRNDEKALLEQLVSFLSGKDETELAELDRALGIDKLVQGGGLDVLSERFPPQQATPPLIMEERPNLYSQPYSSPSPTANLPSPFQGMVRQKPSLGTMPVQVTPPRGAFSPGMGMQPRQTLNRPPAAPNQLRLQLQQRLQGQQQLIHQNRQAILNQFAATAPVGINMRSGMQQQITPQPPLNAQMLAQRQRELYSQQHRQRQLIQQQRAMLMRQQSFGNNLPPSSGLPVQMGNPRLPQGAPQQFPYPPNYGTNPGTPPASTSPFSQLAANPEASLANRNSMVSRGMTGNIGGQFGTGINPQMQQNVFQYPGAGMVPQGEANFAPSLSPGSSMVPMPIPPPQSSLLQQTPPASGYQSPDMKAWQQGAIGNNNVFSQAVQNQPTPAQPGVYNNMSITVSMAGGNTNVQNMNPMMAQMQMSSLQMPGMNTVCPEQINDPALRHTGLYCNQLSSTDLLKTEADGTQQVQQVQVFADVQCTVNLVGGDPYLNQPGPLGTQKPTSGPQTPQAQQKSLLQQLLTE
# T1 sequence (P98170 whole entry): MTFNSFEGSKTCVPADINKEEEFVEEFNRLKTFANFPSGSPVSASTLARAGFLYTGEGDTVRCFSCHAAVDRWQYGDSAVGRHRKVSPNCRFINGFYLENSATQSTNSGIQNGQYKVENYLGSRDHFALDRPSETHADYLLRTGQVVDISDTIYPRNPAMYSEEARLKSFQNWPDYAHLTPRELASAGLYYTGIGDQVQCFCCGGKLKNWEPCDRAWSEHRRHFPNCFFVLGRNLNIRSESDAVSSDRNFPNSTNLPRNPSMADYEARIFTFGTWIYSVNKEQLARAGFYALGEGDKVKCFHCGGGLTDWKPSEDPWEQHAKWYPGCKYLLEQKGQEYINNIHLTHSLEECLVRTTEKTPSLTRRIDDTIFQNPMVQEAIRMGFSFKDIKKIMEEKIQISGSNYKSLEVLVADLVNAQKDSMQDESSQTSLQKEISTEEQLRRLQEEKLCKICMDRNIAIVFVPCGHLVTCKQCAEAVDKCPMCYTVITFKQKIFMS
# Mitogen-activated protein kinase 10, sequence (P53779 whole entry): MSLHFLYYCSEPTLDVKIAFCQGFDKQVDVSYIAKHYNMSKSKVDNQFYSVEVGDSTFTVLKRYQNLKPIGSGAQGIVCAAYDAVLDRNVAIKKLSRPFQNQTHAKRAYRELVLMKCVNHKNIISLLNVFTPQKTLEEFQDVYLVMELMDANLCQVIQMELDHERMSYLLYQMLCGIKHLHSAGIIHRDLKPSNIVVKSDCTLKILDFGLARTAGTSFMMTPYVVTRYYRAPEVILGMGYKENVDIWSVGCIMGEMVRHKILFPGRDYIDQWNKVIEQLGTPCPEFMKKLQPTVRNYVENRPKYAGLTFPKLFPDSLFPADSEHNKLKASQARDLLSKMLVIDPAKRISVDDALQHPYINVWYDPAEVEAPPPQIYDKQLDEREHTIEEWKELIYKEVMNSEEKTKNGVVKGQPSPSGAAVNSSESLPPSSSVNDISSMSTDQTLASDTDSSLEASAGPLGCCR
smiles,measurement,setting,value
COc1ccc(S(=O)(=O)CCC(=O)NC2CCCCC2)cc1,IC50,[1],> 100 µM (inactive)
same,IC50,[2],> 100 µM (not active)
c1ccc2[nH]c(CSc3ncnc4c3oc3ccccc34)nc2c1,EC50,[3],9.02 µM (active)
same,EC50,[4],> 79.4 µM (not active)
same,EC50,[5],5.6 µM (active)
same,IC50,[6],> 93.1 µM (not active)
Cc1c2cnccc2c(C)c2c1c1ccccc1n2CCOC(=O)c1ccccc1,AC50,Cytochrome P450 2C19,0.794 µM (inconclusive)
same,GI50,P388/ADR,9.23 µM (inactive)
same,GI50,SN12K1,10.3 µM (inactive)
same,GI50,P388,4.95 µM (inactive)
COc1cccc(C2CC(c3c(O)nc4ccc(Cl)cc4c3-c3ccccc3)=NN2S(C)(=O)=O)c1OC (stereo not drawn),IC50,Aminopeptidase N,78.2 µM (active)
O=C(O)c1cccc2c1C(=O)c1ccc(-c3ccc(F)cc3OCc3ccccc3)cc1S2(=O)=O,IC50,Genome polyprotein,50.5 µM (active)
CCOC(=O)c1c(C)nsc1S,EC50,[3],> 79.4 µM (inactive)
same,EC50,[4],> 79.4 µM (not active)
same,EC50,[5],> 26.5 µM (not active)
same,IC50,[6],30.5 µM (not active)
same,IC50,[7],56.6 µM (active)
CN(Cc1ccccc1)C(=O)CSc1cc(=O)n(C)c2ccccc12,EC50,[3],> 79.4 µM (inactive)
same,EC50,[4],> 79.4 µM (not active)
same,EC50,[5],> 79.4 µM (not active)
CCCc1nc(SCC(=O)Nc2ccc(S(=O)(=O)N(C)C)cc2)c2ccccc2n1,IC50,[1],> 100 µM (inactive)
same,IC50,[2],> 100 µM (not active)
CC(=O)CSc1ncnc2c1oc1ccccc12,EC50,[3],> 79.4 µM (inactive)
same,EC50,[4],> 79.4 µM (not active)
same,EC50,[5],> 26.5 µM (not active)
O=C(C1CC(c2ccc(F)cc2)=NO1)N1CCc2ccccc2C1 (stereo not drawn),IC50,[1],> 100 µM (inactive)
same,IC50,[2],> 100 µM (not active)
CCCCOC(=O)CNc1nnc(S)nc1O,EC50,[3],5 µM (active)
same,EC50,[4],91.3 µM (not active)
same,EC50,[5],4.23 µM (active)
COC(=O)/C=C/C(=O)N1CCN(c2ccccc2)CC1,IC50,[1],> 100 µM (inactive)
same,IC50,[2],> 100 µM (not active)
c1ccc(N=Nc2cn[nH]c2-c2ccco2)cc1,IC50,[1],> 100 µM (inactive)
same,IC50,[2],> 100 µM (not active)
CCN1CCN(CCCNC(=O)Cn2cc3c(n2)CCCC3)CC1,IC50,[1],> 100 µM (inactive)
same,IC50,[2],> 100 µM (not active)
O=C(NNC(=O)c1ccc(O)cc1O)c1ccc(Cl)cc1,IC50,Aminopeptidase N,58.1 µM (active)
OC(c1cc(C(F)(F)F)nc2c(Cl)cc(Cl)cc12)C1CCCCN1 (stereo not drawn),CC50,[8],15.8 µM (active)
same,AC50,[9],21.6 µM (active)
O=C(NC(Cc1ccc(I)cc1)C(=O)O)c1ccc(I)cc1 (stereo not drawn),GI50,P388/ADR,38 µM (inactive)
same,GI50,SN12K1,> 100 µM (inactive)
same,GI50,P388,41.4 µM (inactive)
COc1ccccc1Cc1nc(-c2ccccc2)nn(C2OC(COC(C)=O)C(OC(C)=O)C(OC(C)=O)C2OC(C)=O)c1=S (stereo not drawn),GI50,P388/ADR,19.6 µM (inactive)
same,GI50,SN12K1,9.95 µM (inactive)
same,GI50,P388,21.9 µM (inactive)
CC1C(=O)C(C)C(c2cccs2)N(N=O)C1c1cccs1 (stereo not drawn),GI50,P388/ADR,36 µM (inactive)
same,GI50,SN12K1,> 100 µM (inactive)
same,GI50,P388,39.4 µM (inactive)
COc1ccc(/C=C2\CCNC2=O)cc1,GI50,P388/ADR,82.4 µM (inactive)
same,GI50,SN12K1,> 100 µM (inactive)
same,GI50,P388,> 100 µM (inactive)
CC(NC(=O)C(C)NC(=O)C(N)CCP(C)(=O)O)C(=O)O (stereo not drawn),GI50,P388/ADR,> 100 µM (inactive)
same,GI50,SN12K1,> 100 µM (inactive)
same,GI50,P388,> 31.6 µM (inactive)
C=CCn1c(=O)/c(=C/c2ccc(O)cc2)s/c1=C(/C#N)c1nnc2n1CCCCC2,IC50,Aminopeptidase N,51.1 µM (active)
same,IC50,[7],58.7 µM (active)
O=C(Nc1c(-c2ccccc2)[nH][nH]c1=O)c1cnccn1,IC50,[10],42.5 µM (active)
NC(=O)c1ccc(/N=C/c2ccc([N+](=O)[O-])s2)cc1,EC50,[11],5.94 µM (active)
same,EC50,[12],5.3 µM (active)
same,CC50,[13],19.2 µM (active)
same,IC50,cells,13.4 µM (active)
same,AC50,[14],1.98 µM (active)
same,IC50,[10],2.47 µM (active)
